# Reference: ChEMBL document CHEMBL2417488, “Inhibitory effects of p-dodecylaminophenol on the invasiveness of human fibrosarcoma cell line HT1080” (Bioorg Med Chem, 2013)
# The source made the active and inactive calls. The rule behind the calls is not given here.
# Key:
# [1] = system: HT-1080; assay: (§1) Toxicity in human HT1080 cells assessed as reduction of cell growth at 1 uM after 24 hrs; format: cell-based; conditions: ht-1080, 24 h, 1 µM
# [2] = system: HT-1080; assay: Reduction of MMP9 mRNA level in human HT1080 cells at 1 uM after 24 hrs by RT-PCR analysis relative to control; format: functional
# [3] = target: 72 kDa type IV collagenase (Homo sapiens) (UniProt P08253); assay: Inhibition of MMP2 activity in human HT1080 cells at 1 uM after 24 hrs; format: cell-based; conditions: HT-1080
# Sequence of 72 kDa type IV collagenase (Homo sapiens) (P08253 110-660 limits assumed): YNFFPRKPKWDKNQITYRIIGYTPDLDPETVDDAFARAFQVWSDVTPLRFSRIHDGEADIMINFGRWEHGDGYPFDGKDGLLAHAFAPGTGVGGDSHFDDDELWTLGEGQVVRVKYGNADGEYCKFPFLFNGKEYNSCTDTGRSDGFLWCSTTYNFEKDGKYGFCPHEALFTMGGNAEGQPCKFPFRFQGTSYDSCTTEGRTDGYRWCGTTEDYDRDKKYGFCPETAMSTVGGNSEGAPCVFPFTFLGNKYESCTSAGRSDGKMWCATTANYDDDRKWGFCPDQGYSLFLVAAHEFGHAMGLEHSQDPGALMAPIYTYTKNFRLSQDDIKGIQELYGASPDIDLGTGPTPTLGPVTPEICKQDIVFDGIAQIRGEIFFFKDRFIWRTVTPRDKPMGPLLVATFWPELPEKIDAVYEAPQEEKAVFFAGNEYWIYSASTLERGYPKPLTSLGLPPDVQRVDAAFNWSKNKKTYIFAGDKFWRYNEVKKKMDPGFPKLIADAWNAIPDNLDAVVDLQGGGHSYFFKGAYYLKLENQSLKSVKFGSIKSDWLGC
# [4] = system: HT-1080; assay: Antiinvasive activity in human HT1080 cells assessed as reduction of cell number at 1 uM after 22 hrs by matrigel invasion assay; format: functional
# [5] = target: Matrix metalloproteinase-9 (Homo sapiens) (UniProt P14780); assay: Inhibition of MMP9 activity in human HT1080 cells at 1 uM after 24 hrs; format: cell-based; conditions: HT-1080
# Sequence of Matrix metalloproteinase-9 (Homo sapiens) (P14780 whole entry): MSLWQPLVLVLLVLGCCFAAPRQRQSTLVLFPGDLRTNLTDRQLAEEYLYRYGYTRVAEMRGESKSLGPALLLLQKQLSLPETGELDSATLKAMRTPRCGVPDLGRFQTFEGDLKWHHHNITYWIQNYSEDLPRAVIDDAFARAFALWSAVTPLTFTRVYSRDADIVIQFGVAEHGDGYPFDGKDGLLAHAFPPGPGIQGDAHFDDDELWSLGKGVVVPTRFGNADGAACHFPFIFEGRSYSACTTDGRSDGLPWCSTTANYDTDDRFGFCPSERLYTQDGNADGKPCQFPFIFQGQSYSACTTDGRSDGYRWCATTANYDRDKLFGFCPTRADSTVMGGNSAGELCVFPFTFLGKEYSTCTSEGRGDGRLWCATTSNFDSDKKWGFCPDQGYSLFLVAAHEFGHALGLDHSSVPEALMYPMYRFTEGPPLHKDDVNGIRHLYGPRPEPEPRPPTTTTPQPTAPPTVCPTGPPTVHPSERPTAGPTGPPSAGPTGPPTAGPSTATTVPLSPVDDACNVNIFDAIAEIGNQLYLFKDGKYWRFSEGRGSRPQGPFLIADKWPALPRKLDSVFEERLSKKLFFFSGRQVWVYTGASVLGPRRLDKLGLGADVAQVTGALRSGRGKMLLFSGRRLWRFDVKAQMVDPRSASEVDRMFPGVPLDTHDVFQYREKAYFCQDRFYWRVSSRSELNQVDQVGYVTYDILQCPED
# [6] = system: HT-1080; assay: Reduction of MMP2 mRNA level in human HT1080 cells at 1 uM after 24 hrs by RT-PCR analysis relative to control; format: functional, cell-based
# [7] = system: HT-1080; assay: Induction of RECK mRNA expression in human HT1080 cells at 1 uM after 24 hrs by RT-PCR analysis relative to control; format: functional
# [8] = system: HT-1080; assay: Cell cycle arrest in human HT1080 cells assessed as accumulation at G2/M phase at 1 uM after 72 hrs using propidium iodide staining by FACS analysis relative to control; format: functional
# [9] = system: HT-1080; assay: Cell cycle arrest in human HT1080 cells assessed as accumulation at S phase after 72 hrs using propidium iodide staining by FACS analysis; format: functional, cell-based
# [10] = system: HT-1080; assay: Induction of apoptosis in human HT1080 cells assessed as increase in caspase-3 activity at 4 uM relative to control; format: functional
# [11] = system: HT-1080; assay: Induction of RECK protein expression in human HT1080 cells at 1 uM after 24 hrs by electrophoresis analysis relative to control; format: functional
# [12] = system: HT-1080; assay: Cell cycle arrest in human HT1080 cells assessed as accumulation at S phase at 4 uM after 72 hrs using propidium iodide staining by FACS analysis relative to control; format: functional
# [13] = as §1; format: cell-based, HT-1080; conditions: HT1080 cells, read-out: Activity
# [14] = system: HT-1080; assay: Cell cycle arrest in human HT1080 cells assessed as accumulation at G0/G1 phase at 10 uM after 72 hrs using propidium iodide staining by FACS analysis relative to control; format: functional
# [15] = system: HT-1080; assay: Reduction of proMMP9 level in human HT1080 cells after 24 to 72 hrs by gelatin zymography analysis; format: functional, cell-based
# [16] = system: HT-1080; assay: Cell cycle arrest in human HT1080 cells assessed as accumulation at G2/M phase at 10 uM after 72 hrs using propidium iodide staining by FACS analysis relative to control; format: functional
# [17] = system: HT-1080; assay: Induction of RECK protein expression in human HT1080 cells at 4 uM after 24 hrs by electrophoresis analysis relative to control; format: functional
# [18] = system: HT-1080; assay: Induction of apoptosis in human HT1080 cells assessed as increase in caspase-3 activity at 10 uM relative to control; format: functional
# [19] = system: HT-1080; assay: Reduction of MMP2 level in human HT1080 cells after 24 to 72 hrs by gelatin zymography analysis; format: functional, cell-based
# [20] = system: HT-1080; assay: Cytotoxicity against human HT1080 cells assessed as growth inhibition at 4 to 10 uM after 72 hrs by trypan blue dye exclusion assay relative to control; format: functional
# [21] = system: HT-1080; assay: Reduction of MMP9 level in human HT1080 cells after 24 to 72 hrs by gelatin zymography analysis; format: functional, cell-based
# [22] = system: HT-1080; assay: Induction of apoptosis in human HT1080 cells assessed as increase in caspase-3 activity at 1 uM relative to control; format: functional, cell-based
# [23] = system: HT-1080; assay: Induction of RECK protein expression in human HT1080 cells after 24 hrs by electrophoresis analysis relative to control; format: functional, cell-based
# [24] = system: HT-1080; assay: Cell cycle arrest in human HT1080 cells assessed as accumulation at S phase at 10 uM after 72 hrs using propidium iodide staining by FACS analysis relative to control; format: functional
# [25] = system: HT-1080; assay: Cytotoxicity against human HT1080 cells assessed as growth inhibition after 72 hrs by trypan blue dye exclusion assay; format: functional, cell-based; conditions: HT-1080, 72 h
# [26] = system: HT-1080; assay: Reduction of proMMP2 level in human HT1080 cells after 24 to 72 hrs by gelatin zymography analysis; format: functional, cell-based
# [27] = system: HT-1080; assay: Cell cycle arrest in human HT1080 cells assessed as accumulation at G0/G1 phase at 1 uM after 72 hrs using propidium iodide staining by FACS analysis relative to control; format: functional
# [28] = system: HT-1080; assay: Cell cycle arrest in human HT1080 cells assessed as accumulation at S phase at 1 uM after 72 hrs using propidium iodide staining by FACS analysis relative to control; format: functional
# [29] = Cytotoxicity against human HuCCT1 cells; format: functional, cell-based; conditions: HuCCT-1
# [30] = system: HT-1080; assay: Cell cycle arrest in human HT1080 cells assessed as accumulation at G0/G1 phase at 4 uM after 72 hrs using propidium iodide staining by FACS analysis relative to control; format: functional
# [31] = system: HT-1080; assay: Cell cycle arrest in human HT1080 cells assessed as accumulation at G2/M phase at 4 uM after 72 hrs using propidium iodide staining by FACS analysis relative to control; format: functional
# [32] = system: HT-1080; assay: Antiinvasive activity in human HT1080 cells at 50 uM; format: functional
# [33] = system: HT-1080; assay: Antiinvasive activity in human HT1080 cells at 30 uM; format: functional
# [34] = system: HT-1080; assay: Cytotoxicity against human HT1080 cells; format: functional, cell-based
smiles,measurement,setting,value
CC1=C(/C=C/C(C)=C/C=C/C(C)=C/C(=O)O)C(C)(C)CCC1 [TRETINOIN],Activity,[1],Non-toxic
same,Activity,[2],inactive
same,inhibition,[3],inactive
same,Activity,[4],inactive
same,inhibition,[5],inactive
same,Activity,[6],inactive
same,Activity,[7],inactive
CCCCCCCCCCCCNc1ccc(O)cc1,Activity,[8],28.2%
same,Activity,[9],Dose-dependent effect
same,fold change (FC),[10],3.2
same,Activity,[11],140%
same,Activity,[12],11%
same,"inhibition at 24 h, 1 µM",[13],8%
same,Activity,[14],50.6%
same,Activity,[2],60%
same,Activity,[15],Dose-dependent effect
same,IC50,[15],900 nM
same,Activity,[16],30.3%
same,Activity,[17],175%
same,fold change (FC),[18],4.8
same,Activity,[19],Dose-dependent effect
same,IC50,[19],2400 nM
same,growth inhibition (GI),[20],77%
same,Activity,[21],Dose-dependent effect
same,IC50,[21],700 nM
same,inhibition,[3],inactive
same,Activity,[22],inactive
same,Activity,[23],Dose-dependent effect
same,Activity,[24],19.1%
same,IC50,[25],1000 nM
same,Activity,[26],Dose-dependent effect
same,IC50,[26],> 10000 nM
same,Activity,[27],63.1%
same,Activity,[28],8.7%
same,Activity,[4],80%
same,IC50,[29],2000 nM
same,Activity,[30],58.5%
same,Activity,[31],30.4%
same,inhibition,[5],50%
same,Activity,[6],inactive
same,Activity,[7],162%
O=S(=O)(c1cccc2c(O)nccc12)N1CCCNCC1 [HYDROXYFASUDIL],Activity,[32],50%
C[C@@H](N)c1ccc(C(=O)Nc2ccncc2)cc1.Cl,Activity,[33],50%
O=C(CCCCCCSc1ccc2ccccc2c1)NO,IC50,[34],3000 nM
COc1cc(C2Oc3cc([C@H]4Oc5cc(O)cc(O)c5C(=O)[C@@H]4O)ccc3OC2CO)ccc1O (some centres undefined) [SILIBININ],IC50,[34],400000 nM
O=S(=O)(c1cccc2cnccc12)N1CCCNCC1 [FASUDIL],Activity,[32],26%
COC(=O)[C@H](CCSC)NC(=O)c1ccc(CNCc2c[nH]cn2)cc1-c1ccccc1C,IC50,[34],> 50000 nM
CC1=C(/C=C/C(C)=C/C=C/C(C)=C/C(=O)Nc2ccc(O)cc2)C(C)(C)CCC1 [FENRETINIDE],"inhibition at 24 h, 1 µM",[13],4%
same,Activity,[2],inactive
same,inhibition,[3],inactive
same,Activity,[4],20%
same,inhibition,[5],inactive
same,Activity,[6],inactive
same,Activity,[7],inactive
